Converted amounts (≈) assume the structure as drawn. “And” between values parts separate entries of the source, which are not always exact repeats. Equal values may be shown once. Where a SMILES comes first, the peptide text is derived from it. The star is where a group is joined. Octanoyl = CCCCCCCC(=O)*; X1 = CCCCCCC(CCCC)C(=O)*; X2 = O=C(C#Cc1ccccc1)*
Key:
[1] = system: Enterococcus faecium ATCC 700221; format: cell-based; conditions: ATCC 700221, 18 h
Protocol: (§1) Tests of the antibacterial activity were carried out as we just described. Briefly, for assays, the following strains of ESKAPE bacteria were chosen: Acinetobacter baumannii ATCC BAA-1605, Enterococcus faecium ATCC 700221, Klebsiella aerogenes ATCC 13048 (formerly Enterobacter aerogenes), Klebsiella pneumoniae ATCC 700603, and Pseudomonas aeruginosa ATCC 9027. Moreover, the reference strains of Staphylococcus aureus were used: S. aureus ATCC 25923, S. aureus ATCC 6538, S. aureus ATCC 33591 (MRSA), S. aureus ATCC 9144, and S. aureus ATCC 12598. Before experiments, all the strains were stored at −80 °C in Roti®-Store cryo vials (Carl Roth GmbH, Karlsruhe, Germany). To evaluate the activity of the compounds, bacteria were transferred into fresh Mueller–Hinton medium (Becton Dickinson, Warszawa, Poland) and incubated for 24 h at 37 °C. In the next step, bacterial inoculums were seeded on Mueller–Hinton agar plates (BioMaxima SA, Lublin, Poland) and incubated again for 24 h. The MIC values were determined using the broth microdilution method according to the Clinical and Laboratory Standards Institute Protocol. The initial inoculums of bacteria (0.5 × 10^5 colony forming units (CFU)/mL) prepared in Mueller–Hinton broth were exposed to the ranging concentrations of peptides (1–512 µg/mL). The experiments were conducted on 96-well microtiter plates, with a final volume of 100 µL. The inoculum densities were checked spectrophotometrically (Multiskan™ GO Microplate Spectrophotometer, Thermo Scientific, Waltham, MA, USA) at 600 nm. The results were read after incubation for 18 h at 37 °C. The MIC values were the lowest concentration at which a visible growth of microorganisms was inhibited. All experiments were conducted in triplicate. Moreover, positive (growth) and negative (sterility) controls were included.

[2] = system: Klebsiella aerogenes ATCC 13048; format: cell-based; conditions: ATCC 13048, 18 h
Protocol: as §1

[3] = system: Klebsiella pneumoniae ATCC 700603; format: cell-based; conditions: ATCC 700603, 18 h
Protocol: as §1

[4] = system: Pseudomonas aeruginosa ATCC 9027; format: cell-based; conditions: ATCC 9027, 18 h
Protocol: as §1

[5] = system: S. aureus ATCC 12598; format: cell-based, Staphylococcus aureus; conditions: ATCC 12598, 18 h
Protocol: as §1

[6] = system: S. aureus ATCC 25923; format: cell-based, Staphylococcus aureus; conditions: ATCC 25923, 18 h
Protocol: as §1

[7] = system: S. aureus ATCC 33591 (MRSA); format: cell-based, Staphylococcus aureus; conditions: ATCC 33591, 18 h
Protocol: as §1

[8] = system: S. aureus ATCC 6538; format: cell-based, Staphylococcus aureus; conditions: ATCC 6538, 18 h
Protocol: as §1

[9] = system: S. aureus ATCC 9144; format: cell-based, Staphylococcus aureus; conditions: ATCC 9144, 18 h
Protocol: as §1

[10] = 18 h
[11] = system: human red blood cells (hRBCs); assay: Hemolysis assay; conditions: 4% (v/v) erythrocytes in PBS, peptides 1–512 µg/mL, 1 h at 37 °C, hemoglobin at 540 nm
Protocol: To facilitate a comparison of hemolytic activity between the analogs, MHC5 values were determined. MHC5 is the minimum hemolytic concentration of the compounds that caused the 5% hemolysis of hRBCs.
Briefly, the fresh hRBCs with EDTA as anticoagulant were rinsed three times with PBS through centrifugation at 800× g for 10 min and resuspended in PBS. The serial dilution of peptides (1–512 µg/mL) was prepared in PBS on 96-well plates. Then, the stock RBCs solution was added to the plates to reach a final volume of 100 µL with a 4% concentration of erythrocytes (v/v). The control wells for 0 (RBCs in PBS) and 100% (RBCs in 1% Triton-X 100) hemolysis were also prepared. Then, the plates were incubated for 1 h at 37 °C and centrifuged at 800× g for 10 min at 4 °C (Sorvall ST 16R Centrifuge, Thermo Scientific, Waltham, MA, USA). After centrifugation, the supernatant was carefully transferred to new microtiter plates and the release of hemoglobin was measured at 540 nm (Multiskan™ GO Microplate Spectrophotometer, Thermo Scientific, Waltham, MA, USA). The percentage of hemolysis was calculated based on wells with 100% hemolysis.

[12] = 100% = 1% Triton-X 100, ≥ means less than 5% hemolysis up to 512 µg/mL

| SMILES | MIC E. faecium [1] | MIC K. aerogenes [2] | MIC K. pneumoniae [3] | MIC P. aeruginosa [4] | MIC S. aureus 12598 [5] | MIC S. aureus 25923 [6] | MIC S. aureus 33591 [7] | MIC S. aureus 6538 [8] | MIC S. aureus 9144 [9] | MIC A. baumannii [10] | MHC5 (minimum hemolytic concentration causing 5% hemolysis of hRBCs) [11, 12] | MHC5 (minimum hemolytic concentration causing 5% hemolysis of hRBCs) ([11]; fresh batch of blood (footnote a)) |
| --- | --- | --- | --- | --- | --- | --- | --- | --- | --- | --- | --- | --- |
| CCCCCCCC(=O)NCCCC[C@H](N)C(=O)N[C@@H](CCCCN)C(=O)N[C@@H](CCCNC(=N)N)C(=O)N[C@H](C(=O)N[C@H](C(=O)N[C@@H](CCC(N)=O)C(=O)N[C@@H](CCCNC(=N)N)C(=O)N[C@H](C(=O)N[C@@H](CCCCN)C(=O)N[C@@H](CC(=O)O)C(=O)N[C@@H](Cc1ccccc1)C(=O)N[C@@H](CC(C)C)C(=O)N[C@@H](CCCNC(=N)N)C(N)=O)[C@@H](C)CC)C(C)C)[C@@H](C)CC [V, C8^ε-Lys-KR12-NH2] (H-K(Octanoyl)KRIVQRIKDFLR-NH2) | 4 µg/mL (≈ 2.19 µM) | 64 µg/mL (≈ 35.1 µM) | 16 µg/mL (≈ 8.77 µM) | 16 µg/mL (≈ 8.77 µM) | 32 µg/mL (≈ 17.5 µM) | 64 µg/mL (≈ 35.1 µM) | 64 µg/mL (≈ 35.1 µM) | 8 µg/mL (≈ 4.38 µM) | 32 µg/mL (≈ 17.5 µM) | 32 µg/mL (≈ 17.5 µM) | 256 µg/mL | – |
| CCCCCCCC(=O)NCCCC[C@H](N)C(=O)N[C@@H](CCCNC(=N)N)C(=O)N[C@H](C(=O)N[C@H](C(=O)N[C@@H](CCC(N)=O)C(=O)N[C@@H](CCCNC(=N)N)C(=O)N[C@H](C(=O)N[C@@H](CCCCN)C(=O)N[C@@H](CC(=O)O)C(=O)N[C@@H](Cc1ccccc1)C(=O)N[C@@H](CC(C)C)C(=O)N[C@@H](CCCNC(=N)N)C(N)=O)[C@@H](C)CC)C(C)C)[C@@H](C)CC [III, C8^ε-KR12-NH2] (H-K(Octanoyl)RIVQRIKDFLR-NH2) | 4 µg/mL (≈ 2.36 µM) | 64 µg/mL (≈ 37.7 µM) | 32 µg/mL (≈ 18.9 µM) | 64 µg/mL (≈ 37.7 µM) | 64 µg/mL (≈ 37.7 µM) | 32 µg/mL (≈ 18.9 µM) | 64 µg/mL (≈ 37.7 µM) | 8 µg/mL (≈ 4.71 µM) | 32 µg/mL (≈ 18.9 µM) | 32 µg/mL (≈ 18.9 µM) | – | – |
| CCCCCCCC(=O)NCCCC[C@H](NC(=O)CCCCCCC)C(=O)N[C@@H](CCCNC(=N)N)C(=O)N[C@H](C(=O)N[C@H](C(=O)N[C@@H](CCC(N)=O)C(=O)N[C@@H](CCCNC(=N)N)C(=O)N[C@H](C(=O)N[C@@H](CCCCN)C(=O)N[C@@H](CC(=O)O)C(=O)N[C@@H](Cc1ccccc1)C(=O)N[C@@H](CC(C)C)C(=O)N[C@@H](CCCNC(=N)N)C(N)=O)[C@@H](C)CC)C(C)C)[C@@H](C)CC [IX, C8^α,C8^ε-KR12-NH2] (Octanoyl-K(Octanoyl)RIVQRIKDFLR-NH2) | 16 µg/mL (≈ 8.78 µM) | 512 µg/mL (≈ 281 µM) | >512 µg/mL | >512 µg/mL | 256 µg/mL (≈ 140 µM) | 512 µg/mL (≈ 281 µM) | 256 µg/mL (≈ 140 µM) | – | 256 µg/mL (≈ 140 µM) | 512 µg/mL (≈ 281 µM) | – | – |
| CCCCCCCC(=O)NCCCC[C@H](NC(=O)[C@H](CCCNC(=N)N)NC(=O)[C@H](CC(C)C)NC(=O)[C@H](Cc1ccccc1)NC(=O)[C@H](CC(=O)O)NC(=O)[C@H](CCCCN)NC(=O)[C@@H](NC(=O)[C@H](CCCNC(=N)N)NC(=O)[C@H](CCC(N)=O)NC(=O)[C@@H](NC(=O)[C@@H](NC(=O)[C@H](CCCNC(=N)N)NC(=O)[C@@H](N)CCCCN)[C@@H](C)CC)C(C)C)[C@@H](C)CC)C(N)=O [VI, KR12-Lys^ε(C8)-NH2] (H-KRIVQRIKDFLRK(Octanoyl)-NH2) | 4 µg/mL (≈ 2.19 µM) | 64 µg/mL (≈ 35.1 µM) | 32 µg/mL (≈ 17.5 µM) | 32 µg/mL (≈ 17.5 µM) | 32 µg/mL (≈ 17.5 µM) | 64 µg/mL (≈ 35.1 µM) | 32 µg/mL (≈ 17.5 µM) | 64 µg/mL (≈ 35.1 µM) | 32 µg/mL (≈ 17.5 µM) | 16 µg/mL (≈ 8.77 µM) | – | – |

Continued, in another order:

| MIC E. faecium [1] | MIC K. aerogenes [2] | MIC K. pneumoniae [3] | MIC P. aeruginosa [4] | MIC S. aureus 12598 [5] | MIC S. aureus 25923 [6] | MIC S. aureus 33591 [7] | MIC S. aureus 6538 [8] | MIC S. aureus 9144 [9] | MIC A. baumannii [10] | SMILES | MHC5 (minimum hemolytic concentration causing 5% hemolysis of hRBCs) [11, 12] | MHC5 (minimum hemolytic concentration causing 5% hemolysis of hRBCs) ([11]; fresh batch of blood (footnote a)) |
| --- | --- | --- | --- | --- | --- | --- | --- | --- | --- | --- | --- | --- |
| 4 µg/mL (≈ 2.35 µM) | 16 µg/mL (≈ 9.42 µM) | 32 µg/mL (≈ 18.8 µM) | 64 µg/mL (≈ 37.7 µM) | 32 µg/mL (≈ 18.8 µM) | 128 µg/mL (≈ 75.3 µM) | 32 µg/mL (≈ 18.8 µM) | 8 µg/mL (≈ 4.71 µM) | 16 µg/mL (≈ 9.42 µM) | 32 µg/mL (≈ 18.8 µM) | CC[C@H](C)[C@H](NC(=O)[C@H](CCCNC(=N)N)NC(=O)[C@H](CCC(N)=O)NC(=O)[C@@H](NC(=O)[C@@H](NC(=O)[C@H](CCCNC(=N)N)NC(=O)[C@H](CCCCN)NC(=O)C#Cc1ccccc1)[C@@H](C)CC)C(C)C)C(=O)N[C@@H](CCCCN)C(=O)N[C@@H](CC(=O)O)C(=O)N[C@@H](Cc1ccccc1)C(=O)N[C@@H](CC(C)C)C(=O)N[C@@H](CCCNC(=N)N)C(N)=O [XX, Phenylpropiolic acid-KR12-NH2] (X2-KRIVQRIKDFLR-NH2) | 256 µg/mL | – |
| 2 µg/mL (≈ 1.14 µM) | 8 µg/mL (≈ 4.56 µM) | 8 µg/mL (≈ 4.56 µM) | 32 µg/mL (≈ 18.3 µM) | 4 µg/mL (≈ 2.28 µM) | 8 µg/mL (≈ 4.56 µM) | 4 µg/mL (≈ 2.28 µM) | 32 µg/mL (≈ 18.3 µM) | 2 µg/mL (≈ 1.14 µM) | 4 µg/mL (≈ 2.28 µM) | CCCCCCC(CCCC)C(=O)N[C@@H](CCCCN)C(=O)N[C@@H](CCCNC(=N)N)C(=O)N[C@H](C(=O)N[C@H](C(=O)N[C@@H](CCC(N)=O)C(=O)N[C@@H](CCCNC(=N)N)C(=O)N[C@H](C(=O)N[C@@H](CCCCN)C(=O)N[C@@H](CC(=O)O)C(=O)N[C@@H](Cc1ccccc1)C(=O)N[C@@H](CC(C)C)C(=O)N[C@@H](CCCNC(=N)N)C(N)=O)[C@@H](C)CC)C(C)C)[C@@H](C)CC (stereo partly drawn) [XIII, 2-Buthyloctanoic acid-KR12-NH2] (X1-KRIVQRIKDFLR-NH2) | – | 8 µg/mL and 16 ^a µg/mL |
| 16 µg/mL (≈ 9.59 µM) | 64 µg/mL (≈ 38.3 µM) | 128 µg/mL (≈ 76.7 µM) | 64 µg/mL (≈ 38.3 µM) | 512 µg/mL (≈ 307 µM) | 128 µg/mL (≈ 76.7 µM) | 512 µg/mL (≈ 307 µM) | 64 µg/mL (≈ 38.3 µM) | 512 µg/mL (≈ 307 µM) | 32 µg/mL (≈ 19.2 µM) | CCCCCCCC(=O)NCCCC[C@H](NC(=O)[C@H](CC(C)C)NC(=O)[C@H](Cc1ccccc1)NC(=O)[C@H](CC(=O)O)NC(=O)[C@H](CCCCN)NC(=O)[C@@H](NC(=O)[C@H](CCCNC(=N)N)NC(=O)[C@H](CCC(N)=O)NC(=O)[C@@H](NC(=O)[C@@H](NC(=O)[C@H](CCCNC(=N)N)NC(=O)[C@@H](N)CCCCN)[C@@H](C)CC)C(C)C)[C@@H](C)CC)C(N)=O [VII, [Lys^ε(C8)]^12KR12-NH2] (H-KRIVQRIKDFLK(Octanoyl)-NH2) | – | – |

Reference: PMC10053710, “Influence of Lipidation Pattern of the KR12 Fragment of Peptide LL-37 on Its Antibacterial and Hemolytic Activities” (International Journal of Molecular Sciences, 2023)
